For assay [1], the system named is Mouse fibroblasts (3T3-L1 cells). Nature of the assay: Fatty acid releasing activity in mouse fibroblasts differentiated to adipocytes (NEFA-C Test Wako). Format: cell-based. To be noted: 1 μM in PBS, 4 hours; triplicate; control 0.024. As to the method:
The induction of differentiation from mouse fibroblasts (3T3-L1 cells) to adipocytes was carried out in 12-well multiwell plates according to a known procedure. After treatment over about 2 weeks to induce differentiation to adipocytes, it was confirmed under a microscope that large differences in the differentiation induction activity were not present among these wells.
[…] After 4 hours, 5 μL of the PBS solution was picked up and was transferred to a 96-well multiwell plate. The amount of free-fatty acid was measured on the 96-well multiwell plate by using a NEFA-C Test Wako which is for measuring free-fatty acid.
The principle of measuring the amount of free-fatty acid is as follows. AcylCoA is produced by the reaction between acylCoA synthetase (ACS) and free-fatty acid. The reaction of acylCoA oxidase (ACOD) with the produced acylCoA generates hydrogen peroxide, and in the presence of this hydrogen peroxide, oxidative condensation between 3-methyl-N-ethyl-N-(β-hydroxyethyl)aniline (MEHA) and 4-aminoantipyrine was done, and thereby a blue-purple dye was produced. The amount of free fatty acid can be detected by measurement Of the optimal absorbance of this blue-purple dye. A large quantity of free fatty acid indicates a high level of lipolysis and an inhibition of intracellular fat accumulation […].

Assay [2] relates to athletes of sports which need endurance. In words: Endurance exercise test in athletes after beverage ingestion (stationary bicycle, crossover). Format: in vivo, human. How it is done: The object of these experiments was 12 athletes (6 males, 6 females) of sports which need endurance (for example, cycling, rowing, or triathlon). The following (a)-(c) were evaluated for a beverage containing the amino acid composition of the present invention, water, and flavor (Example 1), a beverage containing glucose, water, and flavor (Comparative Example 1), and a beverage containing water and flavor (Comparative Example 2): (a) work done during full exercise, (b) total amount of fat oxidation during steady-state submaximal exercise, (c) changes of plasma glucagon concentration and free-fatty acid, and (d) change of blood lactate concentration.
The test used a 3-way double-blind crossover design. The 12 athletes were divided into 6 groups. Each of the groups, which contains 2 athletes, is used in each of the following six kinds of experimental sequential procedures with 3 kinds of beverages (i.e. Example 1 and Comparative Examples 1 and 2).
In FIG. 1, the time, when the fasting was finished, was designated as the base time (i.e. time 0). A prescribed diet and limited exercise had been done during the period from 24 hours before the base time to 12 hours before the base time; fasting was carried out in the period of from 12 hours before the base time to time 0; and the beverage (i.e. Example 1, Comparative Example 1, or Comparative Example 2) was orally ingested at 30 minutes after the finish of the fasting. After the lapse of 30 minutes after ingesting the beverage (designated as the “sample” in FIG. 1), exercise with a stationary training bicycle was performed for 85 minutes at a work load equivalent to 65% of the maximum oxygen intake (referred to below as steady-state submaximal exercise), and, after finishing steady-state submaximal exercise, as much work as possible was completed in 5 minutes on the stationary training bicycle.

Assay [3] deals with Mouse fibroblasts (3T3-L1 cells). In words: Inhibition of differentiation of mouse fibroblasts into adipocytes, measured as GPDH activity. Format: cell-based. As to conditions: 10 μM in D-MEM medium; control without addition 370 units. As to the method: Experiments were carried out for investigating whether the amino acid composition of the present invention is active in inhibiting the intracellular accumulation of fat granules (specifically, the ability to inhibit the induction of the differentiation of preadipocytes).
Mouse fibroblasts (3T3-LI cells) efficiently differentiate into adipocytes in the presence of dexamethasone (DEX), isobutylmethylxanthine (IBMX), and insulin. It is known that the addition of “Wortmannin”, which is a substance that inhibits the induction of differentiation to adipocytes, inhibits differentiation into adipocytes. This inhibitory effect can be evaluated by measuring the GPDH activity.
The GPDH activity is quantitated in terms of units where 1 unit equals 1 nmol of NADH which is oxidized for one minute in 1 mL of the culture medium for inducing the differentiation of mouse fibroblasts (3T3-LI cells) into adipocytes. A smaller value of units indicates a greater inhibitory effect on differentiation and a greater inhibition of intracellular fat granule accumulation.
The culture medium was obtained by dissolving the same amino acid composition of the present invention as that in Example 1 into D-MEM medium (i.e. serum-containing liquid medium) to provide a concentration of 1 mass %. Almost of the all amount of the amino acid composition was dissolved well by ultrasonication. […]

We go through three compounds from patent US20100144815A1, “AMINO ACID COMPOSITION” (priority 2007, published 2010).

For `CC(C)NCC(O)c1ccc(O)c(O)c1` (racemic) [Comparative Example 9, dl-isoproterenol], the “average value of absorbance (amount of free-fatty acid)” value in assay [1] came to 0.041.
In the case of `O=C[C@H](O)[C@@H](O)[C@H](O)[C@H](O)CO` [Comparative Example 1, glucose], the “amount of work during the 5 minutes of full exercise (average value of the 12 participants)” value in assay [2] (380 g beverage (6 g active) orally 30 min before 85 min steady-state submaximal exercise, then 5 min full exercise) is on record as 83.3 kJ. Also, the “total amount of fat oxidation during 85-minute steady-state submaximal exercise” value in assay [2] (beverage orally 30 min before exercise at 65% of maximum oxygen intake) is recorded as 49.3 g. In addition, the “concentration of lactic acid after 5-minute full exercise” value in assay [2] (blood, after full exercise) stood at 8.8 mmol/L. The “concentration of lactic acid immediately before full exercise (after the sustained exercise period)” value in assay [2] (blood, before full exercise) is 1.5 mmol/L.
In assay [3], `COC[C@H]1OC(=O)c2coc3c2[C@@]1(C)C1=C(C3=O)[C@@H]2CCC(=O)[C@@]2(C)C[C@H]1OC(C)=O` [Comparative Example 4, Wortmannin] yielded a GPDH activity of 47 units.
